Results as given in EP1976513B1 (priority 2006, dated 2007).
“And” between values parts separate entries of the source, which are not always exact repeats. Equal entries are not always repeated. Structures can show the parent of a compound that is named as a salt. Where two headings read alike, the source gives them in different places.

How the values were obtained:
[1] = biological target: human serotonin reuptake transporter (Homo sapiens, UniProt P31645); test: cell-based
[2] = biological target: T1, human dopamine reuptake transporter (Homo sapiens, UniProt Q01959); test: cell-based
T1 construct: expressed in transfected cells; host or cells: CHO-K1 or HEK293

[3] = recombinant human serotonin transporter (SERT), read-out: Human IC50 (nM) hSERT
[4] = recombinant human dopamine transporter (DAT), read-out: Human IC50 (nM) hDAT
[5] = Human IC50 (nM) hSERT, recombinant human serotonin transporter (SERT)

T1 sequence (Q01959 whole entry): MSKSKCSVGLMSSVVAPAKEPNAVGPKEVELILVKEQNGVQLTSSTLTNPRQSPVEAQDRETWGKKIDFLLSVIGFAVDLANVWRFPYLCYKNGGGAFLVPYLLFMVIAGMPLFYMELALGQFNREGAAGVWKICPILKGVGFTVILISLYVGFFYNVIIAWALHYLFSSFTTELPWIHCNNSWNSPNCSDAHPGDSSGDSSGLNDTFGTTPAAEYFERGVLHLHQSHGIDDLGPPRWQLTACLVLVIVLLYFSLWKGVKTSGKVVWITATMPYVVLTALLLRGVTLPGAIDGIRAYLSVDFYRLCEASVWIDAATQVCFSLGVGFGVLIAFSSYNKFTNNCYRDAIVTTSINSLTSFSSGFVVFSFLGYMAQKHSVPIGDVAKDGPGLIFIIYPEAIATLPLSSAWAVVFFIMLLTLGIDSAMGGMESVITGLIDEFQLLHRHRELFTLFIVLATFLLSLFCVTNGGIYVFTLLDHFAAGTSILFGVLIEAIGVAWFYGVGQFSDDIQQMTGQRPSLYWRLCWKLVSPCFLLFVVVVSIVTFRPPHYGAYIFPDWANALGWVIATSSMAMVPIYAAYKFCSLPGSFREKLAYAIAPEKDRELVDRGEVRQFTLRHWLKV
Sequence of human serotonin reuptake transporter (P31645 whole entry): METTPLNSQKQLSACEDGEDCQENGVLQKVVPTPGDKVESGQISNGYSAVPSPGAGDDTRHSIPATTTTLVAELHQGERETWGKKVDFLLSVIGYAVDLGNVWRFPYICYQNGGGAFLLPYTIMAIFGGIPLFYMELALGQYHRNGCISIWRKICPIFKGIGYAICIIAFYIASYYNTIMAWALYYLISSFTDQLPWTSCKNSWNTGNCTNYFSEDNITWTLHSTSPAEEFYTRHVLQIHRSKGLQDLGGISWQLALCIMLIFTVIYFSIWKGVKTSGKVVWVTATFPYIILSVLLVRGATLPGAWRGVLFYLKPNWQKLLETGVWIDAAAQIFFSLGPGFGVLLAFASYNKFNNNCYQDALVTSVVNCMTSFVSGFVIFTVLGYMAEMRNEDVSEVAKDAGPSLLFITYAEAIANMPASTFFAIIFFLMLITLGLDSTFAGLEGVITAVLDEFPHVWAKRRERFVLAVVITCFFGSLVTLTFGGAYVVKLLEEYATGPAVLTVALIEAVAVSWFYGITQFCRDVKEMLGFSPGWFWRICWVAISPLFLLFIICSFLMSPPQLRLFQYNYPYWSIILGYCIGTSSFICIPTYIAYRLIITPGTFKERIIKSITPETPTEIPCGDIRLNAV

Compound	IC50 [1, 3]	IC50 [2, 4]	other results
CNCC1(c2ccc(Cl)c(Cl)c2)CCC1 [Compound 42, 1-(1-(3,4-dichlorophenyl)cyclobutyl)-N-methylmethanamine]	935 nM	761 nM	
CN(C)CC1(c2ccc(Cl)c(Cl)c2)CCC(F)CC1 (stereo not drawn) [Compound 261, 1-(1-(3,4-dichlorophenyl)-4-fluorocyclohexyl)-N,N-dimethylmethanamine]			IC50 ([1]; read-out: Human IC50 (nM) hSERT): 30 nM; IC50 ([2]; Human IC50 (nM) hDAT): 7 nM
NCC1(c2cccc(Cl)c2)CCCCC1 [Compound 28, (1-(3-chlorophenyl)cyclohexyl)methanamine hydrochloride]	4560 nM	707 nM	
CN(C)CC1(c2ccc(Cl)cc2Cl)CCCCC1 [Compound 66, 1-(1-(2,4-dichlorophenyl)cyclohexyl)-N,N-dimethylmethanamine]		355 nM	IC50 [1, 5]: 221 nM
NCC1(c2ccc3ccccc3c2)CCC(O)(CF)CC1 (stereo not drawn) [Compound 218, 4-(aminomethyl)-1-(fluoromethyl)-4-(naphthalen-2-yl)cyclohexanol]	480 nM	5590 nM	
CN(C)CC1(c2ccc3ccccc3c2)CCC(F)CC1 (stereo not drawn) [Compound 233, 1-(4-fluoro-1-(naphthalen-2-yl)cyclohexyl)-N,N-dimethylmethanamine]	37 nM	3 nM	
NCC1(c2cccc(C(F)(F)F)c2)CCCCC1 [Compound 36, (1-(3-(trifluoromethyl)phenyl)-cyclohexyl)methanamine]		> 10000 nM	IC50 [1, 5]: 6550 nM
NCC1(c2ccc(F)cc2)CCCCC1 [Compound 91, (1-(4-fluorophenyl)cyclohexyl)methaneamine]		1830 nM	IC50 [1, 5]: > 10000 nM
CNCC1(c2ccc(Cl)c(Cl)c2)CCCC1 [Compound 88, (1-(3,4-dichlorophenyl)cyclopentyl)-N-methylmethanamine]		93 nM	IC50 ([1]; Human IC50 (nM) hSERT): 829 nM
CNCC1(c2ccc3c(c2)OCO3)CCC(C)(O)CC1 (stereo not drawn) [Compound 241, 4-(benzo[d][1,3]dioxol-5-yl)-1-methyl-4-((methylamino)methyl)cyclohexanol]	> 10000 nM	> 10000 nM	
CN1Cc2c(ccc3c2OCO3)C2(CCC(C)(O)CC2)C1 (single isomer, unassigned) [Compound 294, 4',8-dimethyl-8,9-dihydro-7H-spiro([1,3]dioxolo[4,5-h]isoquinoline-6,1'-cyclohexan]-4'-ol]	> 10000 nM	> 10000 nM	
COC1CCCC(CN)(c2ccc(Cl)c(Cl)c2)C1 (single isomer, unassigned) [195 E2]	45 nM	5320 nM	
CN(C)CC1(c2ccc3ccccc3c2)CCC(Cl)CC1 (stereo not drawn) [Compound 230, 1-(4-chloro-1-(naphthalen-2-yl)cyclohexyl)-N,N-dimethylmethanamine]	30 nM	11 nM	
NCC1(c2ccc(OC(F)(F)F)cc2)CCC(O)CC1 (stereo not drawn) [Compound 220, 4-(aminomethyl)-4-(4-(trifluoromethoxy)phenyl)cyclohexanol]	6150 nM	> 10000 nM	
CN(C)CC1(c2ccc(F)c3ccccc23)CCCCC1 [Compound 70, 1-(1-(4-fluoronaphthalen-1-yl)cyclohexyl)-N,N-dimethylmethanamine]	29 nM	214 nM	
CN(C)CC1(c2ccc3cc(F)ccc3c2)CCCCC1 [Compound 68, 1-(1-(6-fluoronaphthalen-2-yl)cyclohexyl)-N,N-dimethylmethanamine]	19 nM	343 nM	
CN(C)CC1(c2ccc3ccccc3c2)CCC(F)(F)CC1 [Compound 252, 1-(4,4-difluoro-1-(naphthalen-2-yl)cyclohexyl)-N,N-dimethylmethanamine]	11 nM and 12 nM	6 nM and 5 nM	
CC1(O)CCC(CN)(c2ccc3c(c2)OCO3)CC1 (stereo not drawn) [Compound 215, 4-(aminomethyl)-4-(benzo[d][1,3]dioxol-5-yl)-1-methylcyclohexanol]	4190 nM	6240 nM	
CCC(N(C)C)C1(c2ccc(Cl)c(Cl)c2)CCCCC1 (single isomer, unassigned) [61 E1, 1-(1-(3,4-dichlorophenyl)cyclohexyl)-N,N-dimethylpropan-1-amine]		959 nM	IC50 [1, 5]: 5950 nM
COC1CCC(CN)(c2ccc(Cl)c(Cl)c2)CC1 (stereo not drawn) [Compound 257, (1-(3,4-dichlorophenyl)-4-methoxycyclohexyl)methanamine]	2080 nM	2000 nM	
NCC1(c2ccc(Cl)c(Cl)c2)CCCC1 [Compound 87, (1-(3,4-dichlorophenyl)cyclopentyl)methanamine]		139 nM	IC50 [1, 5]: 1470 nM
CNCC1(c2ccc(Cl)c(Cl)c2)CC=CC1 [Compound 168, 1-(1-(3,4-dichlorophenyl)cyclopent-3-enyl)-N-methylmethanamine]		108 nM	IC50 [1, 5]: 1470 nM
CN(C)CC1(c2ccc3ccccc3c2)CCC(F)CC1 (stereo not drawn) [Compound 235, 1-(4-fluoro-1-(naphthalen-2-yl)cyclohexyl)-N,N-dimethylmethanamine]	9 nM	92 nM	

Compound	IC50 [1, 3]	IC50 [2, 4]	other results
CN(C)CC1(c2ccc3c(c2)OCO3)CCC(C)(O)CC1 (stereo not drawn) [Compound 240, 4-(benzo[d][1,3]dioxol-5-yl)-4-((dimethylamino)methyl)-1-methylcyclohexanol]	1810 nM	9030 nM	
CC1CCCN1CC1(c2ccc(Cl)c(Cl)c2)CCCCC1 (racemic) [Compound 115, 1-((1-(3,4-dichlorophenyl)cyclohexyl)methyl)-2-methylpyrrolidine]		< 1 nM	IC50 ([1]; Human IC50 (nM) hSERT): > 10000 nM
CN(C)CC1(c2ccc3ccccc3c2)CCC(C)(O)CC1 (stereo not drawn) [Compound 224, 4-((dimethylamino)methyl)-1-methyl-4-(naphthalen-2-yl)cyclohexanol]	69 nM	993 nM	
CNCC1(c2ccc3ccccc3c2)CCC(F)(F)CC1 [Compound 251, 1-(4,4-difluoro-1-(naphthalen-2-yl)cyclohexyl)-N-methylmethanamine]	199 nM	107 nM	
NCC1(c2ccc3ccccc3c2)CCC(O)CC1 (stereo not drawn) [Compound 207, 4-(aminomethyl)-4-(naphthalen-2-yl)cyclohexanol]	142 nM	1020 nM	
NCC1(c2ccc(Cl)c(Cl)c2)CCC1 [Compound 1, (1-(3,4-dichlorophenyl)cyclobutyl)methanamine]	1290 nM	103 nM	
OC1Cc2ccccc2C1NCC1(c2ccc(Cl)c(Cl)c2)CCCCC1 (racemic) [Compound 113, 1-((1-(3,4-dichlorophenyl)cyclohexyl)methylamino)-2,3-dihydro-1H-inden-2-ol]	2570 nM	285 nM	
CNCC1(c2ccc3ccccc3c2)CCC(O)(CF)CC1 (stereo not drawn) [Compound 245, 1-(fluoromethyl)-4-((methylamino)methyl)-4-(naphthalen-2-yl)cyclohexanol]	538 nM	2270 nM	
CCCC1(O)CCC(CNC)(c2ccc(Cl)c(Cl)c2)CC1 (stereo not drawn) [Compound 285, 4-(3,4-dichlorophenyl)-4-((methylamino)methyl)-1-propylcyclohexanol]	1140 nM	1900 nM	
CNC(C)C1(c2ccc3ccccc3c2)CCC(C)(O)CC1 (single isomer, unassigned) [231 E2, 1-methyl-4-(1-(methylamino)ethyl)-4-(naphthalen-2-yl)cyclohexanol]	63 nM	83 nM	
CNCC1(c2ccc(OC)cc2)CCCCC1O (single isomer, unassigned) [139 E2, cis-2-((methylamino)methyl)-2-(4-methoxyphenyl)cyclohexanol]	> 10000 nM	> 10000 nM	
NCC1(c2ccc3ccccc3c2)CCC(O)CC1 (stereo not drawn) [Compound 208, 4-(aminomethyl)-4-(naphthalen-2-yl)cyclohexanol]	1990 nM	7670 nM	
CC1(O)CCCC(CN)(c2ccc(Cl)c(Cl)c2)C1 (single isomer, unassigned) [193 E2, 3-Aminomethyl-3-(3,4-dichloro-phenyl)-1-methyl-cyclohexanol]	957 nM	3160 nM	
CNCC1(c2ccc3c(c2)OCO3)CCC(C)(O)CC1 (stereo not drawn) [Compound 239, 4-(benzo[d][1,3]dioxol-5-yl)-1-methyl-4-((methylamino)methyl)cyclohexanol]	8660 nM	9450 nM	
CC(N)C1(c2ccc(-c3ccoc3)cc2)CCCCC1 (single isomer, unassigned) [20 E1, 1-(1-(4-(furan-3-yl)phenyl)cyclohexyl)ethanamine]	40 nM	369 nM	
CN(C)CC1(c2ccc3ccccc3c2)CCC(O)CC1 (stereo not drawn) [Compound 229, 4-((dimethylamino)methyl)-4-(naphthalen-2-yl)cyclohexanol]	11 nM		IC50 ([2]; read-out: Human IC50 (nM) hDAT): 40 nM
Clc1ccc(C2(C3CCCN3)CCCCC2)cc1Cl (stereo not drawn) [Compound 296, 2-(1-(3,4-dichlorophenyl)cyclohexyl)pyrrolidine]	73 nM	27 nM	
CN(C)CC1(c2ccc3ccccc3c2)CCC(O)CC1 (stereo not drawn) [Compound 228, 4-((dimethylamino)methyl)-4-(naphthalen-2-yl)cyclohexanol]	96 nM		IC50 ([2]; read-out: Human IC50 (nM) hDAT): 1560 nM
CNCC1(c2ccc(Cl)c(F)c2)CCCCC1 [Compound 95, (1-(4-chloro-3-fluorophenyl)cyclohexyl)-N-methylmethanamine]		324 nM	IC50 [1, 5]: 480 nM
CN(C)CC1(c2ccc(Cl)c(Cl)c2)CC=CCC1 (stereo not drawn) [Compound 72, 1-(1-(3,4-dichlorophenyl)cyclohex-3-enyl)-N,N-dimethylmethanamine]		1.7 nM	IC50 ([1]; Human IC50 (nM) hSERT): 136 nM
NCC1(c2ccc(Cl)cc2)CCCCC1 [Compound 29, (1-(4-chlorophenyl)cyclohexyl)methanamine hydrochloride]	5240 nM	195 nM	
CNCC1(c2ccc(Cl)c(Cl)c2)CCC(=O)CC1 [Compound 289, 4-(3,4-Dichloro-phenyl)-4-methylaminomethyl-cyclohexanone]	469 nM	282 nM	
